Reference: PubChem BioAssay (NCI)
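Test compounds were applied to cells in 96-well plates for 48 hours at 5 doses. Abbreviation: GI50, concentration required for 50% inhibition of growth. TGI: concentration producing complete growth inhibition.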

Legend:
Test in all cases: growth of human tumour cells (NCI), 48 h
786-0 renal = system: 786-0 renal
ACHN renal = system: ACHN renal
BT-549 breast = system: BT-549 breast
CCRF-CEM leukemia = system: CCRF-CEM leukemia
HOP-62 NSCLC = system: HOP-62 NSCLC
HOP-92 NSCLC = system: HOP-92 NSCLC
HS 578T breast = system: HS 578T breast
MDA-MB-231 breast = system: MDA-MB-231 breast
NCI-H23 lung = system: NCI-H23 lung
NCI/ADR-RES ovarian = system: NCI/ADR-RES ovarian
RXF 393 renal = system: RXF 393 renal
SF-268 CNS = system: SF-268 CNS
SF-295 CNS = system: SF-295 CNS
SF-539 CNS = system: SF-539 CNS
SK-MEL-2 melanoma = system: SK-MEL-2 melanoma
SNB-19 CNS = system: SNB-19 CNS
SNB-75 CNS = system: SNB-75 CNS
TK-10 renal = system: TK-10 renal
U251 CNS = system: U251 CNS
A498 renal = system: A498 renal
A549 NSCLC = system: A549 NSCLC
CAKI-1 renal = system: CAKI-1 renal
COLO 205 colon = system: COLO 205 colon
DU-145 prostate = system: DU-145 prostate
EKVX NSCLC = system: EKVX NSCLC
HCC-2998 colon = system: HCC-2998 colon
HCT-116 colon = system: HCT-116 colon
HCT-15 colon = system: HCT-15 colon
HL-60(TB) leukemia = system: HL-60(TB) leukemia
HT29 colon = system: HT29 colon
IGROV1 ovarian = system: IGROV1 ovarian
K-562 leukemia = system: K-562 leukemia
KM12 colon = system: KM12 colon
LOX IMVI melanoma = system: LOX IMVI melanoma
M14 melanoma = system: M14 melanoma
MALME-3M melanoma = system: MALME-3M melanoma
MCF7 breast = system: MCF7 breast
MDA-MB-435 = system: MDA-MB-435
MOLT-4 leukemia = system: MOLT-4 leukemia
NCI-H226 lung = system: NCI-H226 lung
NCI-H460 lung = system: NCI-H460 lung
NCI-H522 lung = system: NCI-H522 lung
OVCAR-3 ovarian = system: OVCAR-3 ovarian
OVCAR-4 ovarian = system: OVCAR-4 ovarian
OVCAR-5 ovarian = system: OVCAR-5 ovarian
OVCAR-8 ovarian = system: OVCAR-8 ovarian
PC-3 prostate = system: PC-3 prostate
RPMI-8226 leukemia = system: RPMI-8226 leukemia
SK-MEL-28 melanoma = system: SK-MEL-28 melanoma
SK-MEL-5 melanoma = system: SK-MEL-5 melanoma
SK-OV-3 ovarian = system: SK-OV-3 ovarian
SN12C renal = system: SN12C renal
SR leukemia = system: SR leukemia
SW-620 colon = system: SW-620 colon
T-47D breast = system: T-47D breast
UACC-257 melanoma = system: UACC-257 melanoma
UACC-62 melanoma = system: UACC-62 melanoma
UO-31 renal = system: UO-31 renal

SMILES: CC(=O)Nc1ccc(NC(=O)Nc2cccc(-c3nc(-c4ccc(NC(=O)c5cccs5)cc4Cl)no3)c2)cc1C(F)(F)F
- GI50 (786-0 renal): 2120 nM
- TGI (786-0 renal): 4.76 µM
- GI50 (ACHN renal): 2670 nM
- TGI (ACHN renal): 8.41 µM
- GI50 (BT-549 breast): 1680 nM
- TGI (BT-549 breast): 4.6 µM
- GI50 (CCRF-CEM leukemia): 1830 nM
- TGI (CCRF-CEM leukemia): > 100 µM
- GI50 (HOP-62 NSCLC): 718 nM
- TGI (HOP-62 NSCLC): 2.25 µM
- GI50 (HOP-92 NSCLC): 1090 nM
- TGI (HOP-92 NSCLC): 3.02 µM
- GI50 (HS 578T breast): 1830 nM
- TGI (HS 578T breast): 4.55 µM
- GI50 (MDA-MB-231 breast): 666 nM
- TGI (MDA-MB-231 breast): 2.23 µM
- GI50 (NCI-H23 lung): 1330 nM
- TGI (NCI-H23 lung): 3.04 µM
- GI50 (NCI/ADR-RES ovarian): 19.7 µM
- TGI (NCI/ADR-RES ovarian): > 100 µM
- GI50 (RXF 393 renal): 1140 nM
- TGI (RXF 393 renal): 2450 nM
- GI50 (SF-268 CNS): 1560 nM
- TGI (SF-268 CNS): 4.08 µM
- GI50 (SF-295 CNS): 1460 nM
- TGI (SF-295 CNS): 2.99 µM
- GI50 (SF-539 CNS): 1450 nM
- TGI (SF-539 CNS): 2910 nM
- GI50 (SK-MEL-2 melanoma): 2.06 µM
- TGI (SK-MEL-2 melanoma): 4.15 µM
- GI50 (SNB-19 CNS): 692 nM
- TGI (SNB-19 CNS): 2.67 µM
- GI50 (SNB-75 CNS): 1310 nM
- TGI (SNB-75 CNS): 2.99 µM
- GI50 (TK-10 renal): 2.19 µM
- TGI (TK-10 renal): 5.07 µM
- GI50 (U251 CNS): 354 nM
- TGI (U251 CNS): 1080 nM

SMILES: CCn1c2ccc(/C=N/OCCCN(C)C)cc2c2cc(/C=N/OCCCN(C)C)ccc21
- GI50 (786-0 renal): 1550 nM
- TGI (786-0 renal): 3.2 µM
- GI50 (A498 renal): 4.45 µM
- TGI (A498 renal): 17.2 µM
- GI50 (A549 NSCLC): 1590 nM
- TGI (A549 NSCLC): 3.01 µM
- GI50 (ACHN renal): 1720 nM
- TGI (ACHN renal): 3.13 µM
- GI50 (BT-549 breast): 1710 nM
- TGI (BT-549 breast): 3.22 µM
- GI50 (CAKI-1 renal): 1430 nM
- TGI (CAKI-1 renal): 2740 nM
- GI50 (COLO 205 colon): 1610 nM
- TGI (COLO 205 colon): 3.05 µM
- GI50 (DU-145 prostate): 3.46 µM
- TGI (DU-145 prostate): 12.3 µM
- GI50 (EKVX NSCLC): 3.26 µM
- TGI (EKVX NSCLC): 13.7 µM
- GI50 (HCC-2998 colon): 1510 nM
- TGI (HCC-2998 colon): 2950 nM
- GI50 (HCT-116 colon): 1270 nM
- TGI (HCT-116 colon): 2700 nM
- GI50 (HCT-15 colon): 1750 nM
- TGI (HCT-15 colon): 3.96 µM
- GI50 (HL-60(TB) leukemia): 1680 nM
- TGI (HL-60(TB) leukemia): 3.95 µM
- GI50 (HOP-62 NSCLC): 4640 nM
- TGI (HOP-62 NSCLC): 18.9 µM
- GI50 (HOP-92 NSCLC): 1700 nM
- TGI (HOP-92 NSCLC): 8.22 µM
- GI50 (HS 578T breast): 2520 nM
- TGI (HS 578T breast): 7.95 µM
- GI50 (HT29 colon): 1520 nM
- TGI (HT29 colon): 3.51 µM
- GI50 (IGROV1 ovarian): 3.08 µM
- TGI (IGROV1 ovarian): 10.3 µM
- GI50 (K-562 leukemia): 1490 nM
- TGI (K-562 leukemia): 3.63 µM
- GI50 (KM12 colon): 3.24 µM
- TGI (KM12 colon): 13.7 µM
- GI50 (LOX IMVI melanoma): 1500 nM
- TGI (LOX IMVI melanoma): 2940 nM
- GI50 (M14 melanoma): 1700 nM
- TGI (M14 melanoma): 3.23 µM
- GI50 (MALME-3M melanoma): 1800 nM
- TGI (MALME-3M melanoma): 3.4 µM
- GI50 (MCF7 breast): 1490 nM
- TGI (MCF7 breast): 3.07 µM
- GI50 (MDA-MB-231 breast): 2230 nM
- TGI (MDA-MB-231 breast): 5.34 µM
- GI50 (MDA-MB-435): 1480 nM
- TGI (MDA-MB-435): 2840 nM
- GI50 (MOLT-4 leukemia): 1920 nM
- TGI (MOLT-4 leukemia): 6.21 µM
- GI50 (NCI-H226 lung): 10 µM
- TGI (NCI-H226 lung): 25.2 µM
- GI50 (NCI-H460 lung): 2020 nM
- TGI (NCI-H460 lung): 4.36 µM
- GI50 (NCI-H522 lung): 1730 nM
- TGI (NCI-H522 lung): 3.43 µM
- GI50 (NCI/ADR-RES ovarian): 1.97 µM
- TGI (NCI/ADR-RES ovarian): 4.89 µM
- GI50 (OVCAR-3 ovarian): 2080 nM
- TGI (OVCAR-3 ovarian): 5.28 µM
- GI50 (OVCAR-4 ovarian): 1730 nM
- TGI (OVCAR-4 ovarian): 3.35 µM
- GI50 (OVCAR-5 ovarian): 2880 nM
- TGI (OVCAR-5 ovarian): 11.5 µM
- GI50 (OVCAR-8 ovarian): 2070 nM
- TGI (OVCAR-8 ovarian): 4.88 µM
- GI50 (PC-3 prostate): 2510 nM
- TGI (PC-3 prostate): 10.9 µM
- GI50 (RPMI-8226 leukemia): 1770 nM
- TGI (RPMI-8226 leukemia): 4.08 µM
- GI50 (RXF 393 renal): 1180 nM
- TGI (RXF 393 renal): 2490 nM
- GI50 (SF-268 CNS): 3690 nM
- TGI (SF-268 CNS): 14.2 µM
- GI50 (SF-295 CNS): 1940 nM
- TGI (SF-295 CNS): 3.82 µM
- GI50 (SF-539 CNS): 1620 nM
- TGI (SF-539 CNS): 2990 nM
- GI50 (SK-MEL-2 melanoma): 15.7 µM
- TGI (SK-MEL-2 melanoma): 30.3 µM
- GI50 (SK-MEL-28 melanoma): 1650 nM
- TGI (SK-MEL-28 melanoma): 3.18 µM
- GI50 (SK-MEL-5 melanoma): 1800 nM
- TGI (SK-MEL-5 melanoma): 3.23 µM
- GI50 (SK-OV-3 ovarian): 16.4 µM
- TGI (SK-OV-3 ovarian): 31.2 µM
- GI50 (SN12C renal): 9.08 µM
- TGI (SN12C renal): 21.5 µM
- GI50 (SNB-19 CNS): 3650 nM
- TGI (SNB-19 CNS): 14 µM
- GI50 (SNB-75 CNS): 1680 nM
- TGI (SNB-75 CNS): 3.93 µM
- GI50 (SR leukemia): 1830 nM
- TGI (SR leukemia): 4.38 µM
- GI50 (SW-620 colon): 1810 nM
- TGI (SW-620 colon): 3.78 µM
- GI50 (T-47D breast): 1800 nM
- TGI (T-47D breast): 3.82 µM
- GI50 (TK-10 renal): 14.1 µM
- TGI (TK-10 renal): 28.2 µM
- GI50 (U251 CNS): 1620 nM
- TGI (U251 CNS): 3140 nM
- GI50 (UACC-257 melanoma): 1680 nM
- TGI (UACC-257 melanoma): 3.09 µM
- GI50 (UACC-62 melanoma): 1920 nM
- TGI (UACC-62 melanoma): 3.87 µM
- GI50 (UO-31 renal): 1500 nM
- TGI (UO-31 renal): 3.24 µM
